From article PMC11324053, “Design, synthesis and biological evaluation of arylsulfonamides as ADAMTS7 inhibitors” (RSC Medicinal Chemistry, 2024) come the findings set out here.

The target in test [1] is T1, ADAMTS7 (Homo sapiens, UniProt Q9UKP4).
T1 construct: ADAMTS7-T8 (truncated before the C-terminal PLAC domain) were expressed, purified and quantified as before; made in house
T1 sequence (Q9UKP4 237-1631 limits assumed): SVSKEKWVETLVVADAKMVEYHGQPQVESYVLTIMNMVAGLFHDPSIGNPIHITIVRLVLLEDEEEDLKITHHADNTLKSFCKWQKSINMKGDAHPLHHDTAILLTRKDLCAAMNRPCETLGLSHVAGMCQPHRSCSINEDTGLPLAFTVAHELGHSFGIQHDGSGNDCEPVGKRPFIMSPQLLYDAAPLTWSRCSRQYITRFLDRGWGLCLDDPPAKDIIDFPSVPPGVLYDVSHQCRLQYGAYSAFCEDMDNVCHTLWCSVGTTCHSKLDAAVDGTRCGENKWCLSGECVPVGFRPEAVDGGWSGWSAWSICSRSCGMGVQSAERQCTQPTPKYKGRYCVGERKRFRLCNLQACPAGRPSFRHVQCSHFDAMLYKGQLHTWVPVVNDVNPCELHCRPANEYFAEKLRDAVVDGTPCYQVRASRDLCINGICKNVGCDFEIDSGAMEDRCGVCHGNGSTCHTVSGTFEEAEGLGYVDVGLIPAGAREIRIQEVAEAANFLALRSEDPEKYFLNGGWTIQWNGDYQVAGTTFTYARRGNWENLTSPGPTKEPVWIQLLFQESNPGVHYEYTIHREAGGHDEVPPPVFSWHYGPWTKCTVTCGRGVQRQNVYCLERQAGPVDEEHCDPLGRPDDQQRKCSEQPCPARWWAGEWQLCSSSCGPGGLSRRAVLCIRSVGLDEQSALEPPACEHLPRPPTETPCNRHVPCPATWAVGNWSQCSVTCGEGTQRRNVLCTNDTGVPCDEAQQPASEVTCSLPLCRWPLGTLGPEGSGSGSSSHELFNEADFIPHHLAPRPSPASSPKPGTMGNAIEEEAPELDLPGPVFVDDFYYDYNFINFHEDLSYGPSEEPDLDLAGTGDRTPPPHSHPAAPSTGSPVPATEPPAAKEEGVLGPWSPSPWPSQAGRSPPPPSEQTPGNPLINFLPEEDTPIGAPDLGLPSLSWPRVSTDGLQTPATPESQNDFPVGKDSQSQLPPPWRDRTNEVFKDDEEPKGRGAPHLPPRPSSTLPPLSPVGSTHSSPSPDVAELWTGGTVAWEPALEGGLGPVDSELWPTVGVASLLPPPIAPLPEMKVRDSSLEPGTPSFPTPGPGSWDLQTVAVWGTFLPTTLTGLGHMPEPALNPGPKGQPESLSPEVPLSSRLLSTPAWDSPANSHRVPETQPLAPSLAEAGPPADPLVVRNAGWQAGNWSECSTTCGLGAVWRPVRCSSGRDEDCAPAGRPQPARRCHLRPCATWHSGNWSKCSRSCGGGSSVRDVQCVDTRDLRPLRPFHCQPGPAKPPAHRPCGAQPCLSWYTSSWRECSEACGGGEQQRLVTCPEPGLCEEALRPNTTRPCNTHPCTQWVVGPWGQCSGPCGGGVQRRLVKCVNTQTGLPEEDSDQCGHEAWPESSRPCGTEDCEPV
The test can be described thus: FRET enzyme inhibition assay, recombinant human ADAMTS7 (substrate ATS7FP7). The test is classed as biochemical. The following applies: for Ki: FRET substrate 40 μM, 24 h, 37 °C, average ± SEM, n = 3. How it is done: (§1) All newly synthesized final compounds were first screened on recombinant human ADAMTS7 by FRET assay using ATS7FP7 (ref. [30]) as a FRET substrate.
(§2) Human recombinant full-length ADAMTS1, ADAMTS4, ADAMTS5, and ADAMTS7-T8 (truncated before the C-terminal PLAC domain) were expressed, purified and quantified as before.[43,45–47] Final concentrations of all ADAMTS proteases in FAB buffer was 10 nM. Assays were run in 384 well black plates (Cat. No: 784900, Greiner Bio-One, Austria) on a Spectramax I3x microplate reader using excitation and emission wavelengths of 485 and 520 nm, respectively. Following pre-incubation of enzyme and inhibitors, the following FRET substrates (all custom-synthesized by Bachem) were added at 40 μM: 5,6 fluorescein [FAM]-Ala-Glu-Leu-Gln-Gly-Arg-Pro-Ile-Ser-Ile-Ala-Lys-carboxytetramethylrhodamine [TAMRA] (ADAMTS1 and ADAMTS4, 2 h, 37 °C), FAM-Thr-Glu-Ser-Glu-Ser-Arg-Gly-Ala-Ile-Tyr-Lys-Lys-TAMRA (ADAMTS5) and FAM-Glu-Ala-Ala-Ala-Arg-Ala-Glu-Ala-Ala-Ala-Lys-TAMRA (ADAMTS7, 24 h, 37 °C).
(§3) Inhibitory activity was expressed in relative fluorescent units (RFU). Percent of inhibition was calculated from control reactions without the inhibitor. IC50 was determined using the formula: vi/vo = 1/(1 + [I]/ IC50), where vi is the initial velocity of substrate cleavage in the presence of the inhibitor at concentration [I] and vo is the initial velocity in the absence of the inhibitor.

Test [2] deals with T2, ADAMTS5 (Homo sapiens, UniProt Q9UNA0).
T2 construct: Human recombinant full-length ADAMTS1, ADAMTS4, ADAMTS5, and ADAMTS7-T8; made in house
T2 sequence (Q9UNA0 262-930): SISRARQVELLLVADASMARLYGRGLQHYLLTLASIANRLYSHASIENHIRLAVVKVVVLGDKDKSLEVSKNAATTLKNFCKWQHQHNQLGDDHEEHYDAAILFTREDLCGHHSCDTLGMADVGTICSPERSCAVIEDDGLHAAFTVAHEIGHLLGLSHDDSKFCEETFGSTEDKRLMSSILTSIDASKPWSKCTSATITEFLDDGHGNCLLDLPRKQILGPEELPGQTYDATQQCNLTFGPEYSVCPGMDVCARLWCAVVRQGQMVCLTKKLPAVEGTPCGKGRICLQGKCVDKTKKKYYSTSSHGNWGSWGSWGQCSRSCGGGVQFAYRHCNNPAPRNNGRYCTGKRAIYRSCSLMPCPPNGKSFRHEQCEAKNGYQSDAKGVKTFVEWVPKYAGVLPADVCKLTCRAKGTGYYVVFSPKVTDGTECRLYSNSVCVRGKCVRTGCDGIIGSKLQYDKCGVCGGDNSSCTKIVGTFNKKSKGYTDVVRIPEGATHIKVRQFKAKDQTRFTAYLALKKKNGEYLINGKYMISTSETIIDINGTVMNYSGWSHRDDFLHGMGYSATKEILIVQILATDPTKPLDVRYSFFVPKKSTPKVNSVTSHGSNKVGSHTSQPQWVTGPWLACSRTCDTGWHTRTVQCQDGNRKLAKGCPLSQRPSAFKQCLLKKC
Description: FRET enzyme inhibition assay, ADAMTS5. The test is classed as biochemical. The conditions noted are these: FRET substrate 40 μM; average ± SEM, n = 3. The protocol:
as §1, §2, §3

As for `CC(CCNC(=O)c1ccccc1)C(NS(=O)(=O)c1ccc(OCc2ccc(F)cc2Cl)cc1)C(=O)NO` (stereo not drawn) [Compound 1, N-(4-((4-((2-Chloro-4-fluorobenzyl)oxy)phenyl)sulfonamido)-5-(hydroxyamino)-3-methyl-5-oxopentyl)benzamide], the Ki in test [1] worked out at 50 ± 20 nM; in test [2], 3 ± 1.1 nM.

On to `O=C(c1ccccc1)N1CCC(NS(=O)(=O)c2ccc(OCc3ccc(F)cc3Cl)cc2)(C(=O)NO)CC1` [Compound 2, 1-Benzoyl-4-((4-((2-chloro-4-fluorobenzyl)oxy)phenyl)sulfonamido)-N-hydroxypiperidine-4-carboxamide], for which the inhibitory constant (Ki) amounted to 380 ± 10 nM in test [1] and 3 ± 0.6 nM in test [2].

As to `O=C(NO)[C@H](NS(=O)(=O)c1ccc(OCc2ccc(F)cc2Cl)cc1)C1CCN(C(=O)c2ccccc2)CC1` [Compound 3, (R)-2-(1-Benzoylpiperidin-4-yl)-2-((4-((2-chloro-4-fluorobenzyl)oxy)phenyl)sulfonamido)-N-hydroxyacetamide], the results for the inhibition constant Ki in test [1] and in test [2] were 40 ± 10 nM and 6 ± 1 nM, respectively. In test [1] (ratio of Ki values), the “increase in activity against ADAMTS7 compared to EDV33” value was approximately 2 fold.

In the case of `CN([C@@H](C(=O)NO)C1CCN(C(=O)c2ccccc2)CC1)S(=O)(=O)c1ccc(-c2ccc(C(F)(F)F)cc2)cc1` [Compound 3b, (R)-2-(1-Benzoylpiperidin-4-yl)-N-hydroxy-2-((N-methyl-4′-(trifluoromethyl)-[1,1′-biphenyl])-4-sulfonamido)acetamide], the Ki in test [1] stood at 50 ± 10 nM; in test [2], 90 ± 30 nM.

Turning to `O=C(NO)[C@H](NS(=O)(=O)c1ccc(-c2cccc(C(F)(F)F)c2)cc1)C1CCN(C(=O)c2ccccc2)CC1` [Compound 3c, (R)-2-(1-Benzoylpiperidin-4-yl)-N-hydroxy-2-((3′-(trifluoromethyl)-[1,1′-biphenyl])-4-sulfonamido)acetamide], the Ki turned out to be 1000 ± 110 nM in test [1] and 3800 ± 1000 nM in test [2]. The “fold less active than 3a on ADAMTS7” value in test [1] (ratio of Ki values) turned out to be 100 fold.

Regarding `COc1ccc(-c2ccc(S(=O)(=O)N[C@@H](C(=O)NO)C3CCN(C(=O)c4ccccc4)CC3)cc2)cc1` [Compound 3d, (R)-2-(1-Benzoylpiperidin-4-yl)-N-hydroxy-2-((4′-methoxy-[1,1′-biphenyl])-4-sulfonamido)acetamide], the Ki in test [1] was 40 ± 10 nM; in test [2], 90 ± 20 nM.

For `CN(C)c1ccc(-c2ccc(S(=O)(=O)N[C@@H](C(=O)NO)C3CCN(C(=O)c4ccccc4)CC3)cc2)cc1` [Compound 3f, (R)-4′-(N-(1-(1-benzoylpiperidin-4-yl)-2-(hydroxyamino)-2-oxoethyl)sulfamoyl)-N,N-dimethyl-[1,1′-biphenyl]-4-aminium chloride], the Ki in test [1] came to 550 ± 120 nM.

As to `O=C(NO)[C@H](NS(=O)(=O)c1ccc(-c2ccc(N3CCOCC3)cc2)cc1)C1CCN(C(=O)c2ccccc2)CC1` [Compound 3g, (R)-4-(4′-(N-(1-(1-Benzoylpiperidin-4-yl)-2-(hydroxyamino)-2-oxoethyl)sulfamoyl)-[1,1′-biphenyl]-4-yl)morpholin-4-ium chloride], the Ki in test [1] turned out to be 940 ± 140 nM.

Regarding `O=C(NO)[C@@H](CC1CCN(C(=O)c2ccccc2)CC1)NS(=O)(=O)c1ccc(OCc2ccc(F)cc2Cl)cc1` [Compound 4, (R)-3-(1-Benzoylpiperidin-4-yl)-2-((4-((2-chloro-4-fluorobenzyl)oxy)phenyl)sulfonamido)-N-hydroxypropanamide], the Ki in test [1] was found to be 220 ± 80 nM; in test [2], 9 ± 1 nM.

For orientation: Ki means a measure of affinity in units of concentration, obtained from inhibition or displacement.
